Data taken from patent US10301317B2, “Inhibitors of ERK and methods of use” (Kura Oncology, Inc., priority 2013, dated 2019).

Each molecule was assayed on A375 cells (assay: Tumor cell line proliferation assay (CellTiter Glo), A375). Conditions: Homo sapiens, A-375, 96 h, read-out: A375 (V599E) Cell Proliferation IC50.
Assay type: cell-based

IC50 [nM]	SMILES
≤ 250	Cc1cc(-c2n[nH]c3cc4c(cc23)CN([C@@H]2CCCN(Cc3ccc(F)c(Cl)c3)C2)C(=O)N4)ccn1 [Example 134]
250 to 1000	Cc1cc(-c2n[nH]c3cc4c(cc23)CN([C@@H]2CCCN(CCC(C)(C)C)C2)C(=O)N4)ccn1 [Example 136]
250 to 1000	Cc1cc(-c2n[nH]c3cc4c(cc23)CN([C@@H]2CCCN(CC3CCCC3)C2)C(=O)N4)ccn1 [Example 138]
250 to 1000	Cc1cc(-c2n[nH]c3cc4c(cc23)CN([C@@H]2CCCN(Cc3cc(C)no3)C2)C(=O)N4)ccn1 [Example 139]
250 to 1000	Cc1cc(-c2n[nH]c3cc4c(cc23)CN([C@@H]2CCCN(Cc3csc(C)n3)C2)C(=O)N4)ccn1 [Example 140]
250 to 1000	Cc1cc(-c2n[nH]c3cc4c(cc23)CN([C@@H]2CCCN(CC3CCCCC3)C2)C(=O)N4)ccn1 [Example 141]
≤ 250	Cc1cc(-c2n[nH]c3cc4c(cc23)CN([C@@H]2CCCN(Cc3c(F)cccc3F)C2)C(=O)N4)ccn1 [Example 143]
≤ 250	COc1cccc(F)c1CN1CCC[C@@H](N2Cc3cc4c(-c5ccnc(C)c5)n[nH]c4cc3NC2=O)C1 [Example 144]
≤ 250	Cc1cc(-c2n[nH]c3cc4c(cc23)CN([C@@H]2CCN(Cc3ccccc3)C2)C(=O)N4)ccn1 [Example 146]
250 to 1000	Cc1cc(-c2n[nH]c3cc4c(cc23)CN([C@@H]2CCN(Cc3c(F)cccc3F)C2)C(=O)N4)ccn1 [Example 147]
250 to 1000	Cc1cc(-c2n[nH]c3cc4c(cc23)CN([C@@H]2CCCN(Cc3cccnc3C(F)(F)F)C2)C(=O)N4)ccn1 [Example 161]
250 to 1000	Cc1cc(-c2n[nH]c3cc4c(cc23)CN([C@@H]2CCCN(Cc3cc(F)cc(F)c3)C2)C(=O)N4)ccn1 [Example 163]
≤ 250	[2H]c1c([2H])c([2H])c(C([2H])([2H])N2CCC[C@@H](N3Cc4cc5c(-c6ccnc(C)c6)n[nH]c5cc4NC3=O)C2)c([2H])c1[2H] [Example 165]
250 to 1000	Cc1cc(-c2n[nH]c3cc4c(cc23)CN([C@@H]2CCCN(c3cccc(Cl)c3)C2)C(=O)N4)ccn1 [Example 174]
250 to 1000	Cc1cc(-c2n[nH]c3cc4c(cc23)CN([C@@H]2CCCN(CCC(F)(F)F)C2)C(=O)N4)ccn1 [Example 178]
250 to 1000	Cc1cc(-c2n[nH]c3cc4c(cc23)CN([C@@H]2CCCN(C(C)c3ccc(F)cc3)C2)C(=O)N4)ccn1 (stereo partly shown) [Example 179]
250 to 1000	Cc1cc(-c2n[nH]c3cc4c(cc23)CN([C@@H]2CCCN(C(C)c3cccc(Cl)c3)C2)C(=O)N4)ccn1 (stereo partly shown) [Example 180]
≤ 250	Cc1cc(-c2n[nH]c3cc4c(cc23)CC(C(C)c2cccc(Cl)c2)C(=O)N4)ccn1 (stereo not shown) [Example 181]
≤ 250	Cc1cc(-c2n[nH]c3cc4c(cc23)CN([C@@H]2CCCN(Cc3ccc(F)c(F)c3)C2)C(=O)N4)ccn1 [Example 190]
250 to 1000	Cc1cc(-c2n[nH]c3cc4[nH]c(=O)c(C(CO)c5ccccc5)cc4cc23)ccn1 (stereo not shown) [Example 328]
250 to 1000	CC(c1ccccc1)c1cc2cc3c(-c4cccnc4)n[nH]c3cc2[nH]c1=O (stereo not shown) [Example 330]
250 to 1000	Cc1cc(-c2n[nH]c3cc4c(cc23)CN([C@@H]2CN(CC(F)(F)F)C[C@H]2C(F)(F)F)C(=O)N4)ccn1 [Example 331]
≤ 250	Cc1cc(-c2n[nH]c3cc4[nH]c(=O)c(C5CCCN(Cc6ccccc6)C5)cc4cc23)ccn1 (stereo not shown) [Example 332]
≤ 250	CC(c1ccccc1)c1cc2cc3c(-c4cnn(C)c4)n[nH]c3cc2[nH]c1=O (stereo not shown) [Example 333]
≤ 250	CC(c1ccccc1)c1cc2cc3c(NC4CCOCC4)n[nH]c3cc2[nH]c1=O (stereo not shown) [Example 338]
≤ 250	C[C@H](c1ccccc1)c1cc2cc3c(NC4CCOCC4)n[nH]c3cc2[nH]c1=O [Example 357]
≤ 250	COc1ncc(-c2n[nH]c3cc4[nH]c(=O)c(C5CCCN(Cc6ccccc6)C5)cc4cc23)cn1 (stereo not shown) [Example 364]

These molecules were tested on H358 (Kras, G12C) cells (assay: Tumor cell line proliferation assay (CellTiter Glo), H358). Conditions: Homo sapiens, NCI-H358, 96 hours.
Assay type: cell-based

IC50 [nM]	SMILES
250 to 1000	Cc1cc(-c2n[nH]c3cc4c(cc23)CN([C@@H]2CCCN(Cc3ccc(F)c(Cl)c3)C2)C(=O)N4)ccn1 [Example 134]
> 1000	Cc1cc(-c2n[nH]c3cc4c(cc23)CN([C@@H]2CCCN(CCC(C)(C)C)C2)C(=O)N4)ccn1 [Example 136]
> 1000	Cc1cc(-c2n[nH]c3cc4c(cc23)CN([C@@H]2CCCN(CC3CCCC3)C2)C(=O)N4)ccn1 [Example 138]
250 to 1000	Cc1cc(-c2n[nH]c3cc4c(cc23)CN([C@@H]2CCCN(Cc3cc(C)no3)C2)C(=O)N4)ccn1 [Example 139]
250 to 1000	Cc1cc(-c2n[nH]c3cc4c(cc23)CN([C@@H]2CCCN(Cc3csc(C)n3)C2)C(=O)N4)ccn1 [Example 140]
250 to 1000	Cc1cc(-c2n[nH]c3cc4c(cc23)CN([C@@H]2CCCN(CC3CCCCC3)C2)C(=O)N4)ccn1 [Example 141]
≤ 250	Cc1cc(-c2n[nH]c3cc4c(cc23)CN([C@@H]2CCCN(Cc3c(F)cccc3F)C2)C(=O)N4)ccn1 [Example 143]
≤ 250	COc1cccc(F)c1CN1CCC[C@@H](N2Cc3cc4c(-c5ccnc(C)c5)n[nH]c4cc3NC2=O)C1 [Example 144]
≤ 250	Cc1cc(-c2n[nH]c3cc4c(cc23)CN([C@@H]2CCN(Cc3ccccc3)C2)C(=O)N4)ccn1 [Example 146]
≤ 250	Cc1cc(-c2n[nH]c3cc4c(cc23)CN([C@@H]2CCN(Cc3c(F)cccc3F)C2)C(=O)N4)ccn1 [Example 147]
250 to 1000	Cc1cc(-c2n[nH]c3cc4c(cc23)CN([C@@H]2CCCN(Cc3cccnc3C(F)(F)F)C2)C(=O)N4)ccn1 [Example 161]
250 to 1000	Cc1cc(-c2n[nH]c3cc4c(cc23)CN([C@@H]2CCCN(Cc3cc(F)cc(F)c3)C2)C(=O)N4)ccn1 [Example 163]
≤ 250	[2H]c1c([2H])c([2H])c(C([2H])([2H])N2CCC[C@@H](N3Cc4cc5c(-c6ccnc(C)c6)n[nH]c5cc4NC3=O)C2)c([2H])c1[2H] [Example 165]
≤ 250	Cc1cc(-c2n[nH]c3cc4c(cc23)CN([C@@H]2CCCN(c3cccc(Cl)c3)C2)C(=O)N4)ccn1 [Example 174]
250 to 1000	Cc1cc(-c2n[nH]c3cc4c(cc23)CN([C@@H]2CCCN(CCC(F)(F)F)C2)C(=O)N4)ccn1 [Example 178]
250 to 1000	Cc1cc(-c2n[nH]c3cc4c(cc23)CN([C@@H]2CCCN(C(C)c3ccc(F)cc3)C2)C(=O)N4)ccn1 (stereo partly shown) [Example 179]
250 to 1000	Cc1cc(-c2n[nH]c3cc4c(cc23)CN([C@@H]2CCCN(C(C)c3cccc(Cl)c3)C2)C(=O)N4)ccn1 (stereo partly shown) [Example 180]
≤ 250	Cc1cc(-c2n[nH]c3cc4c(cc23)CC(C(C)c2cccc(Cl)c2)C(=O)N4)ccn1 (stereo not shown) [Example 181]
250 to 1000	Cc1cc(-c2n[nH]c3cc4c(cc23)CN([C@@H]2CCCN(Cc3ccc(F)c(F)c3)C2)C(=O)N4)ccn1 [Example 190]

The molecules below were run on phospho-p90 RSK (RSK1 Thr359/Ser363) in A375 (Braf V600E) cells (assay: Phospho-p90 RSK ELISA using A375 (Braf V600E) cells). Conditions: Homo sapiens, A-375, 2 hours compound treatment, read-out: Cellular Phospho-p90RSK IC50.
Assay type: cell-based

IC50 [nM]	SMILES
≤ 250	Cc1cc(-c2n[nH]c3cc4c(cc23)CN([C@@H]2CCCN(Cc3ccc(F)c(Cl)c3)C2)C(=O)N4)ccn1 [Example 134]
250 to 1000	Cc1cc(-c2n[nH]c3cc4c(cc23)CN([C@@H]2CCCN(CCC(C)(C)C)C2)C(=O)N4)ccn1 [Example 136]
250 to 1000	Cc1cc(-c2n[nH]c3cc4c(cc23)CN([C@@H]2CCCN(CC3CCCC3)C2)C(=O)N4)ccn1 [Example 138]
250 to 1000	Cc1cc(-c2n[nH]c3cc4c(cc23)CN([C@@H]2CCCN(Cc3cc(C)no3)C2)C(=O)N4)ccn1 [Example 139]
≤ 250	Cc1cc(-c2n[nH]c3cc4c(cc23)CN([C@@H]2CCCN(Cc3csc(C)n3)C2)C(=O)N4)ccn1 [Example 140]
≤ 250	Cc1cc(-c2n[nH]c3cc4c(cc23)CN([C@@H]2CCCN(CC3CCCCC3)C2)C(=O)N4)ccn1 [Example 141]
≤ 250	Cc1cc(-c2n[nH]c3cc4c(cc23)CN([C@@H]2CCCN(Cc3c(F)cccc3F)C2)C(=O)N4)ccn1 [Example 143]
≤ 250	COc1cccc(F)c1CN1CCC[C@@H](N2Cc3cc4c(-c5ccnc(C)c5)n[nH]c4cc3NC2=O)C1 [Example 144]
≤ 250	Cc1cc(-c2n[nH]c3cc4c(cc23)CN([C@@H]2CCN(Cc3ccccc3)C2)C(=O)N4)ccn1 [Example 146]
≤ 250	Cc1cc(-c2n[nH]c3cc4c(cc23)CN([C@@H]2CCN(Cc3c(F)cccc3F)C2)C(=O)N4)ccn1 [Example 147]
≤ 250	Cc1cc(-c2n[nH]c3cc4c(cc23)CN([C@@H]2CCCN(Cc3cccnc3C(F)(F)F)C2)C(=O)N4)ccn1 [Example 161]
≤ 250	Cc1cc(-c2n[nH]c3cc4c(cc23)CN([C@@H]2CCCN(Cc3cc(F)cc(F)c3)C2)C(=O)N4)ccn1 [Example 163]
≤ 250	[2H]c1c([2H])c([2H])c(C([2H])([2H])N2CCC[C@@H](N3Cc4cc5c(-c6ccnc(C)c6)n[nH]c5cc4NC3=O)C2)c([2H])c1[2H] [Example 165]
≤ 250	Cc1cc(-c2n[nH]c3cc4c(cc23)CN([C@@H]2CCCN(c3cccc(Cl)c3)C2)C(=O)N4)ccn1 [Example 174]
≤ 250	Cc1cc(-c2n[nH]c3cc4c(cc23)CN([C@@H]2CCCN(CCC(F)(F)F)C2)C(=O)N4)ccn1 [Example 178]
≤ 250	Cc1cc(-c2n[nH]c3cc4c(cc23)CN([C@@H]2CCCN(C(C)c3ccc(F)cc3)C2)C(=O)N4)ccn1 (stereo partly shown) [Example 179]
≤ 250	Cc1cc(-c2n[nH]c3cc4c(cc23)CN([C@@H]2CCCN(C(C)c3cccc(Cl)c3)C2)C(=O)N4)ccn1 (stereo partly shown) [Example 180]
≤ 250	Cc1cc(-c2n[nH]c3cc4c(cc23)CC(C(C)c2cccc(Cl)c2)C(=O)N4)ccn1 (stereo not shown) [Example 181]
≤ 250	Cc1cc(-c2n[nH]c3cc4c(cc23)CN([C@@H]2CCCN(Cc3ccc(F)c(F)c3)C2)C(=O)N4)ccn1 [Example 190]
≤ 250	Cc1cc(-c2n[nH]c3cc4[nH]c(=O)c(C(CO)c5ccccc5)cc4cc23)ccn1 (stereo not shown) [Example 328]
≤ 250	CC(c1ccccc1)c1cc2cc3c(-c4cccnc4)n[nH]c3cc2[nH]c1=O (stereo not shown) [Example 330]
250 to 1000	Cc1cc(-c2n[nH]c3cc4c(cc23)CN([C@@H]2CN(CC(F)(F)F)C[C@H]2C(F)(F)F)C(=O)N4)ccn1 [Example 331]
≤ 250	Cc1cc(-c2n[nH]c3cc4[nH]c(=O)c(C5CCCN(Cc6ccccc6)C5)cc4cc23)ccn1 (stereo not shown) [Example 332]
≤ 250	CC(c1ccccc1)c1cc2cc3c(-c4cnn(C)c4)n[nH]c3cc2[nH]c1=O (stereo not shown) [Example 333]
≤ 250	CC(c1ccccc1)c1cc2cc3c(NC4CCOCC4)n[nH]c3cc2[nH]c1=O (stereo not shown) [Example 338]
≤ 250	C[C@H](c1ccccc1)c1cc2cc3c(NC4CCOCC4)n[nH]c3cc2[nH]c1=O [Example 357]
≤ 250	COc1ncc(-c2n[nH]c3cc4[nH]c(=O)c(C5CCCN(Cc6ccccc6)C5)cc4cc23)cn1 (stereo not shown) [Example 364]
